Results from ChEMBL document CHEMBL2417456, “Hit identification and optimization in virtual screening: practical recommendations based on a critical literature analysis” (J Med Chem, 2013).

Assays:
[1] = Inhibition of HIV1 His6-tagged integrase-FLAG-tagged LEDGF/p75 (unknown origin) interaction after 1 hr by AlphaScreen assay
[2] = tested on: Human immunodeficiency virus 1; assay: Antiviral activity against HIV1 infected in human MT2 cells assessed as protection from viral replication; format: functional, organism-based; details: Human immunodeficiency virus 1, MT2

Row | SMILES | IC50 [1] [µM] | EC50 [2] [µM]
1 | O=C(O)/C(O)=C/C(=O)c1cn(Cc2ccc(F)cc2)c2ccccc12 | 100 | –
2 | O=C(O)/C(O)=C/C(=O)c1c[nH]c2cccc(O)c12 | 35 | –
3 | COc1ccc(Cc2nnc(Nc3ccc(C)cc3)o2)cc1OC | – | > 100
